Laboratory results published in the NIST ThermoML archive (doi:10.1016/j.fluid.2007.04.023).

Settings: Liquid, Vibrating tube method

CCCCCCCCCCCC [dodecane]
Settings | mass density [kg/m3]
313.09 K, 1022 kPa | 735.79
313.09 K, 2023 kPa | 736.6
313.09 K, 3017 kPa | 737.36
313.09 K, 4026 kPa | 738.14
313.09 K, 5023 kPa | 738.89
313.09 K, 6032 kPa | 739.66
313.09 K, 7011 kPa | 740.38
313.09 K, 8009 kPa | 741.15
313.09 K, 9026 kPa | 741.91
313.09 K, 10008 kPa | 742.66
313.09 K, 11022 kPa | 743.39
313.09 K, 12012 kPa | 744.09
313.09 K, 13019 kPa | 744.82
313.09 K, 14017 kPa | 745.55
313.09 K, 15025 kPa | 746.22
313.09 K, 16025 kPa | 746.91
313.09 K, 17015 kPa | 747.58
313.09 K, 18022 kPa | 748.26
313.09 K, 19025 kPa | 748.93
313.09 K, 20013 kPa | 749.59
313.09 K, 21015 kPa | 750.23
313.09 K, 22011 kPa | 750.9
313.09 K, 23021 kPa | 751.53
313.09 K, 24015 kPa | 752.21
313.09 K, 24354 kPa | 752.42
322.97 K, 1025 kPa | 728.33
322.97 K, 2028 kPa | 729.17
322.97 K, 3026 kPa | 729.97
322.97 K, 4034 kPa | 730.78
322.97 K, 5021 kPa | 731.59
322.97 K, 6017 kPa | 732.37
322.97 K, 7017 kPa | 733.17
322.97 K, 8041 kPa | 733.99
322.97 K, 9015 kPa | 734.73
322.97 K, 10016 kPa | 735.5
322.97 K, 11019 kPa | 736.28
322.97 K, 12011 kPa | 737.01
322.97 K, 13028 kPa | 737.78
322.97 K, 14041 kPa | 738.53
322.97 K, 14994 kPa | 739.22
322.97 K, 16027 kPa | 739.96
322.97 K, 17001 kPa | 740.64
322.97 K, 18015 kPa | 741.35
322.97 K, 19032 kPa | 742.07
322.97 K, 20004 kPa | 742.74
322.97 K, 21009 kPa | 743.43
322.97 K, 22023 kPa | 744.14
322.97 K, 23009 kPa | 744.8
322.97 K, 24013 kPa | 745.5
322.97 K, 24507 kPa | 745.83
332.8 K, 1023 kPa | 721.08
332.8 K, 2019 kPa | 721.96
332.8 K, 3022 kPa | 722.81
332.8 K, 4030 kPa | 723.69
332.8 K, 5026 kPa | 724.53
332.8 K, 6035 kPa | 725.36
332.8 K, 7014 kPa | 726.16
332.8 K, 8025 kPa | 727.03
332.8 K, 9017 kPa | 727.84
332.8 K, 10020 kPa | 728.67
332.8 K, 11023 kPa | 729.46
332.8 K, 12022 kPa | 730.26
332.8 K, 13004 kPa | 731.04
332.8 K, 14008 kPa | 731.81
332.8 K, 15018 kPa | 732.57
332.8 K, 16023 kPa | 733.35
332.8 K, 17014 kPa | 734.08
332.8 K, 18006 kPa | 734.82
332.8 K, 19024 kPa | 735.59
332.8 K, 20023 kPa | 736.32
332.8 K, 21009 kPa | 737.01
332.8 K, 22009 kPa | 737.73
332.8 K, 23018 kPa | 738.45
332.8 K, 24018 kPa | 739.17
332.8 K, 24665 kPa | 739.63
342.69 K, 1019 kPa | 713.8
342.69 K, 2025 kPa | 714.75
342.69 K, 3025 kPa | 715.67
342.69 K, 4014 kPa | 716.58
342.69 K, 5015 kPa | 717.47
342.69 K, 6017 kPa | 718.36
342.69 K, 7021 kPa | 719.25
342.69 K, 8007 kPa | 720.13
342.69 K, 9019 kPa | 721.03
342.69 K, 10018 kPa | 721.86
342.69 K, 11016 kPa | 722.71
342.69 K, 12013 kPa | 723.56
342.69 K, 13021 kPa | 724.39
342.69 K, 14020 kPa | 725.21
342.69 K, 15030 kPa | 726.04
342.69 K, 16024 kPa | 726.83
342.69 K, 17011 kPa | 727.58
342.69 K, 18025 kPa | 728.36
342.69 K, 19023 kPa | 729.15
342.69 K, 20013 kPa | 729.88
342.69 K, 21006 kPa | 730.67
342.69 K, 22021 kPa | 731.41
342.69 K, 23014 kPa | 732.15
342.69 K, 24013 kPa | 732.89
342.69 K, 24725 kPa | 733.44
352.51 K, 1021 kPa | 706.54
352.51 K, 2027 kPa | 707.55
352.51 K, 3013 kPa | 708.48
352.51 K, 4019 kPa | 709.46
352.51 K, 5027 kPa | 710.45
352.51 K, 6014 kPa | 711.35
352.51 K, 7020 kPa | 712.33
352.51 K, 8000 kPa | 713.23
352.51 K, 9024 kPa | 714.18
352.51 K, 10009 kPa | 715.07
352.51 K, 11022 kPa | 715.96
352.51 K, 12012 kPa | 716.84
352.51 K, 13026 kPa | 717.71
352.51 K, 14017 kPa | 718.6
352.51 K, 15021 kPa | 719.45
352.51 K, 16022 kPa | 720.3
352.51 K, 17012 kPa | 721.08
352.51 K, 18027 kPa | 721.95
352.51 K, 19013 kPa | 722.74
352.51 K, 20028 kPa | 723.53
352.51 K, 21021 kPa | 724.33
352.51 K, 22023 kPa | 725.14
352.51 K, 23008 kPa | 725.88
352.51 K, 24020 kPa | 726.65
352.51 K, 24813 kPa | 727.31
362.29 K, 1015 kPa | 699.21
362.29 K, 2020 kPa | 700.31
362.29 K, 3015 kPa | 701.33
362.29 K, 4012 kPa | 702.34
362.29 K, 5029 kPa | 703.4
362.29 K, 6009 kPa | 704.36
362.29 K, 7029 kPa | 705.38
362.29 K, 8013 kPa | 706.3
362.29 K, 9012 kPa | 707.31
362.29 K, 10038 kPa | 708.31
362.29 K, 11027 kPa | 709.22
362.29 K, 12009 kPa | 710.09
362.29 K, 13007 kPa | 711.04
362.29 K, 14015 kPa | 711.96
362.29 K, 15008 kPa | 712.81
362.29 K, 16034 kPa | 713.71
362.29 K, 17030 kPa | 714.59
362.29 K, 18011 kPa | 715.43
362.29 K, 19021 kPa | 716.29
362.29 K, 20007 kPa | 717.15
362.29 K, 21017 kPa | 717.94
362.29 K, 22032 kPa | 718.77
362.29 K, 23002 kPa | 719.6
362.29 K, 24005 kPa | 720.38
362.29 K, 24809 kPa | 721.05
